Laboratory results from PubChem BioAssay (NCI).
Several values for one entry are separate records, joined by “and”; a condition that tells them apart may be missing. Identical values can stand only once.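 Interpolation was linear, between the two tested concentrations surrounding the appropriate level; five concentrations were tested over 48 hours in 96-well plates. GI50 = concentration required for 50% inhibition of growth. TGI: concentration producing complete growth inhibition.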

Key:
Assay in all cases: NCI-60 cell line screen, 48 h
A549 NSCLC = system: A549 NSCLC
CCRF-CEM leukemia = system: CCRF-CEM leukemia
EKVX NSCLC = system: EKVX NSCLC
HCC-2998 colon = system: HCC-2998 colon
HL-60(TB) leukemia = system: HL-60(TB) leukemia
HOP-62 NSCLC = system: HOP-62 NSCLC
MOLT-4 leukemia = system: MOLT-4 leukemia
NCI-H522 lung = system: NCI-H522 lung
RXF 393 renal = system: RXF 393 renal
SK-MEL-28 melanoma = system: SK-MEL-28 melanoma

Compound	GI50 (A549 NSCLC)	TGI (A549 NSCLC) [µM]	GI50 (CCRF-CEM leukemia)	TGI (CCRF-CEM leukemia)	GI50 (EKVX NSCLC)	TGI (EKVX NSCLC)	GI50 (HCC-2998 colon)	TGI (HCC-2998 colon)	GI50 (HL-60(TB) leukemia)	TGI (HL-60(TB) leukemia)	GI50 (HOP-62 NSCLC)	GI50 (MOLT-4 leukemia)	TGI (MOLT-4 leukemia) [µM]	GI50 (NCI-H522 lung)	TGI (NCI-H522 lung)	GI50 (RXF 393 renal)	TGI (RXF 393 renal)	GI50 (SK-MEL-28 melanoma)	TGI (SK-MEL-28 melanoma)	TGI (HOP-62 NSCLC)
CO[C@H](C(=O)[C@@H](O)[C@@H](C)O)[C@@H]1Cc2cc3cc(O[C@H]4C[C@@H](O[C@H]5C[C@@H](O)[C@H](O)C(C)O5)[C@H](O)C(C)O4)c(C)c(O)c3c(O)c2C(=O)[C@H]1O[C@H]1C[C@@H](O[C@H]2C[C@@H](O[C@H]3C[C@](C)(O)C(=O)C(C)O3)[C@@H](O)C(C)O2)[C@H](O)C(C)O1 (stereo partly drawn)	0.106 µM	> 33.2	0.211 µM	> 33.2 µM	0.168 µM	> 12.3 µM	0.222 µM	1.72 µM	0.592 µM	> 21 µM	0.0653 µM	0.193 µM	> 19.1	0.0288 µM	0.285 µM	0.0515 µM	0.119 µM	0.053 µM	0.203 µM	
COC(=O)[C@@H]1[C@H](O)[C@H](C)[C@H](O)[C@@](C)(O)/C=C\C=C(C)C(=O)Nc2c(C)c(OC(C)=O)c3c(c2O)C(=O)C(C)=C2OCOC(=C23)C(C)=C[C@@](C)(O)[C@H](O)[C@@H](C)[C@H]1OC(C)=O	> 66.9 µM	> 100	12.8 µM	> 100 µM and 66.9 µM and 47.6 µM	> 66.9 µM	> 100 µM	11.1 µM	> 100 µM and 66.9 µM	11.5 µM	> 100 µM and 64.6 µM and 39.9 µM			> 100	17.8 µM	> 100 µM and 66.9 µM and 43.6 µM		> 100 µM		> 100 µM	> 100 µM and 66.9 µM
COC1=CC(c2ccc[nH]2)=N/C1=C\c1[nH]c(C)c(C(=O)OC(C)C)c1C	0.0505 µM	1.05	0.0316 µM	> 100 µM	0.0799 µM	2.31 µM	0.0485 µM	1.36 µM	0.0551 µM	2.89 µM	0.123 µM	0.0346 µM	3.51	0.0445 µM	0.637 µM	0.0584 µM	1.03 µM	0.216 µM	1.95 µM	1.84 µM
O=S1(=O)c2ccccc2NC(c2ccc3ccccc3c2)CC1c1ccccc1F (stereo not drawn)		> 100		> 100 µM		> 100 µM		> 100 µM		> 100 µM			> 100		> 100 µM		> 100 µM		> 100 µM	> 100 µM
Cc1nc2ccccc2c(N)c1-c1cc(C)c2c(C)nc3ccccc3c2n1	0.243 µM	0.681	0.362 µM	2.12 µM	1.61 µM	3.29 µM	0.627 µM	1.95 µM	0.454 µM		1.77 µM	0.54 µM		2.41 µM	> 20.5 µM	0.182 µM	0.737 µM	1.61 µM	2.97 µM	3.36 µM
O=C1C(=O)N(c2ccc(Cl)cc2Cl)C(=O)C(=O)C1c1nc2ccccc2s1		> 100		88.9 µM		> 100 µM		> 100 µM		67.1 µM			> 89.2		> 57.2 µM		> 100 µM		> 100 µM	> 100 µM
COC1CCC(N2C(=O)CNc3ncc(-c4ccc(C(C)(C)O)nc4)nc32)CC1 (stereo not drawn)	1.48 µM and 0.337 µM	> 34.5	1.41 µM and 0.738 µM	> 100 µM	1.21 µM and 0.186 µM	> 8.47 µM and 6.7 µM	1.98 µM and 0.306 µM	> 39.2 µM	2.88 µM and 1.09 µM	> 10 µM and 30.8 µM	1.92 µM and 0.437 µM	1.51 µM and 0.437 µM	> 100	0.322 µM and 0.0656 µM	2.63 µM	0.373 µM and 0.187 µM	3.66 µM and 2.32 µM	0.378 µM and 0.155 µM	4.1 µM and 10.4 µM	> 10 µM and 14.5 µM
NC(=O)c1cccc2cn(-c3ccc([C@@H]4CCCNC4)cc3)nc12	13.1 µM	28	5.54 µM	97.7 µM	19.7 µM	64.2 µM	14.1 µM	34.3 µM	15.7 µM	34.6 µM	8.44 µM	6.99 µM	30.1	20.4 µM	55.6 µM	13.5 µM	27.1 µM	16.3 µM	30.7 µM	27.8 µM
C=C1C(=O)C23CC1CCC2C12CO[C@@H]4OCC(C)(CC[C@@H]1OC3=O)C42 (stereo partly drawn)		25.1		12.1 µM		32.1 µM		30.9 µM		19.5 µM			9.7		2.33 µM		6.72 µM		4.41 µM	43.4 µM
